{"source": "patent US9695155B2", "about": "“Herbicidal substituted pyrimidinyloxy benzene compounds” (E. I. DU PONT DE NEMOURS AND COMPANY, priority 2013, dated 2017)", "test_in_all_cases": "Test E preemergence", "key": {"[1]": {"tested_on": "morningglory", "format": "in vivo, Ipomoea coccinea", "settings": "for Morningglory plant response rating: scale 0 to 100 (0 no effect, 100 complete control)", "summary_of_the_method": "(§1)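 Compound in a non-phytotoxic solvent mixture with surfactant was applied preemergence to seeds in silt loam soil, or postemergence to plants 2 to 18 cm tall grown in peat-based potting medium. Plants were kept in a greenhouse for 14 to 21 days, then rated visually against untreated controls on a 0 (no effect) to 100 (complete control) scale.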"}, "[2]": {"tested_on": "goosegrass", "format": "in vivo, Eleusine indica", "settings": "for Goosegrass plant response rating: scale 0 to 100 (0 no effect, 100 complete control)", "summary_of_the_method": "as §1"}, "[3]": {"tested_on": "Italian ryegrass", "format": "in vivo, Lolium multiflorum", "settings": "for Ryegrass, Italian plant response rating: scale 0 to 100 (0 no effect, 100 complete control)", "summary_of_the_method": "as §1"}, "[4]": {"tested_on": "corn", "format": "in vivo, Zea mays", "settings": "for Corn plant response rating: scale 0 to 100 (0 no effect, 100 complete control)", "summary_of_the_method": "as §1"}, "[5]": {"tested_on": "johnsongrass", "format": "in vivo, Sorghum halepense", "settings": "for Johnsongrass plant response rating: scale 0 to 100 (0 no effect, 100 complete control)", "summary_of_the_method": "as §1"}, "[6]": {"tested_on": "kochia", "format": "in vivo, Kochia scoparia", "settings": "for Kochia plant response rating: scale 0 to 100 (0 no effect, 100 complete control)", "summary_of_the_method": "as §1"}, "[7]": {"tested_on": "hairy beggarticks", "format": "in vivo, Bidens pilosa", "settings": "for Beggarticks plant response rating: scale 0 to 100 (0 no effect, 100 complete control)", "summary_of_the_method": "as §1"}, "[8]": {"tested_on": "nightshade", "format": "in vivo, Solanum ptycanthum", "settings": "for Nightshade plant response rating: scale 0 to 100 (0 no effect, 100 complete control)", "summary_of_the_method": "as §1"}, "[9]": {"tested_on": "giant foxtail", "format": "in vivo, Setaria faberii", "settings": "for Foxtail, Giant plant response rating: scale 0 to 100 (0 no effect, 100 complete control)", "summary_of_the_method": "as §1"}, "[10]": {"tested_on": "waterhemp", "format": "in vivo, Amaranthus rudis", "settings": "for Waterhemp plant response rating: scale 0 to 100 (0 no effect, 100 complete control)", "summary_of_the_method": "as §1"}, "[11]": {"tested_on": "field bindweed", "format": "in vivo, Convolvulus arvensis", "settings": "for Field Bindweed plant response rating: scale 0 to 100 (0 no effect, 100 complete control)", "summary_of_the_method": "as §1"}, "[12]": {"settings": "8 g ai/ha, scale 0 to 100, 0 is no effect, 100 is complete control"}, "[13]": {"settings": "125 g ai/ha, scale 0 to 100, 0 no effect, 100 complete control"}}}
{"smiles": "Clc1cnc(Oc2ccccc2-n2cc(Br)cn2)nc1", "note": "[Compound 7, 2-[2-(4-bromo-1H-pyrazol-1-yl)phenoxy]-5-chloropyrimidine]", "values": [{"measurement": "Plant response rating, Morningglory", "setting": "[1]; [12]", "value": 0}, {"measurement": "Morningglory plant response rating", "setting": "[1]; 16 g ai/ha", "value": 0}, {"measurement": "Morningglory plant response rating", "setting": "[1]; 31 g ai/ha", "value": 0}, {"measurement": "Morningglory plant response rating", "setting": "[1]; 62 g ai/ha", "value": 0}, {"measurement": "Plant response rating, Morningglory", "setting": "[1]; [13]", "value": 0}, {"measurement": "Plant response rating, Goosegrass", "setting": "[2]; [12]", "value": 0}, {"measurement": "Goosegrass plant response rating", "setting": "[2]; 16 g ai/ha", "value": 0}, {"measurement": "Goosegrass plant response rating", "setting": "[2]; 31 g ai/ha", "value": 35}, {"measurement": "Goosegrass plant response rating", "setting": "[2]; 62 g ai/ha", "value": 40}, {"measurement": "Plant response rating, Goosegrass", "setting": "[2]; [13]", "value": 75}, {"measurement": "Plant response rating, Ryegrass, Italian", "setting": "[3]; [12]", "value": 0}, {"measurement": "Ryegrass, Italian plant response rating", "setting": "[3]; 16 g ai/ha", "value": 0}, {"measurement": "Ryegrass, Italian plant response rating", "setting": "[3]; 31 g ai/ha", "value": 0}, {"measurement": "Ryegrass, Italian plant response rating", "setting": "[3]; 62 g ai/ha", "value": 0}, {"measurement": "Plant response rating, Ryegrass, Italian", "setting": "[3]; [13]", "value": 20}, {"measurement": "Plant response rating, Corn", "setting": "[4]; [12]", "value": 0}, {"measurement": "Corn plant response rating", "setting": "[4]; 16 g ai/ha", "value": 0}, {"measurement": "Corn plant response rating", "setting": "[4]; 31 g ai/ha", "value": 0}, {"measurement": "Corn plant response rating", "setting": "[4]; 62 g ai/ha", "value": 0}, {"measurement": "Plant response rating, Corn", "setting": "[4]; [13]", "value": 0}, {"measurement": "Plant response rating, Johnsongrass", "setting": "[5]; [12]", "value": 0}, {"measurement": "Johnsongrass plant response rating", "setting": "[5]; 16 g ai/ha", "value": 0}, {"measurement": "Johnsongrass plant response rating", "setting": "[5]; 31 g ai/ha", "value": 0}, {"measurement": "Johnsongrass plant response rating", "setting": "[5]; 62 g ai/ha", "value": 40}, {"measurement": "Plant response rating, Johnsongrass", "setting": "[5]; [13]", "value": 50}, {"measurement": "Plant response rating, Kochia", "setting": "[6]; [12]", "value": 0}, {"measurement": "Kochia plant response rating", "setting": "[6]; 16 g ai/ha", "value": 0}, {"measurement": "Kochia plant response rating", "setting": "[6]; 31 g ai/ha", "value": 0}, {"measurement": "Kochia plant response rating", "setting": "[6]; 62 g ai/ha", "value": 50}, {"measurement": "Plant response rating, Kochia", "setting": "[6]; [13]", "value": 95}, {"measurement": "Plant response rating, Beggarticks", "setting": "[7]; 8 g ai/ha, preemergence, scale 0 to 100, 0 is no effect, 100 is complete control", "value": 0}, {"measurement": "Beggarticks plant response rating", "setting": "[7]; 16 g ai/ha, preemergence", "value": 0}, {"measurement": "Beggarticks plant response rating", "setting": "[7]; 31 g ai/ha, preemergence", "value": 0}, {"measurement": "Plant response rating, Beggarticks", "setting": "[7]; Preemergence, 62 g ai/ha, scale 0 to 100, 0 no effect, 100 complete control", "value": 0}, {"measurement": "Plant response rating, Beggarticks", "setting": "[7]; preemergence, 125 g ai/ha, scale 0 to 100, 0 no effect, 100 complete control", "value": 0}, {"measurement": "Plant response rating, Nightshade", "setting": "[8]; [12]", "value": 0}, {"measurement": "Nightshade plant response rating", "setting": "[8]; 16 g ai/ha", "value": 65}, {"measurement": "Nightshade plant response rating", "setting": "[8]; 31 g ai/ha", "value": 98}, {"measurement": "Nightshade plant response rating", "setting": "[8]; 62 g ai/ha", "value": 98}, {"measurement": "Plant response rating, Nightshade", "setting": "[8]; [13]", "value": 98}, {"measurement": "Plant response rating, Foxtail, Giant", "setting": "[9]; [12]", "value": 15}, {"measurement": "Foxtail, Giant plant response rating", "setting": "[9]; 16 g ai/ha", "value": 20}, {"measurement": "Foxtail, Giant plant response rating", "setting": "[9]; 31 g ai/ha", "value": 20}, {"measurement": "Foxtail, Giant plant response rating", "setting": "[9]; 62 g ai/ha", "value": 40}, {"measurement": "Plant response rating, Foxtail, Giant", "setting": "[9]; [13]", "value": 90}, {"measurement": "Plant response rating, Waterhemp", "setting": "[10]; [12]", "value": 95}, {"measurement": "Waterhemp plant response rating", "setting": "[10]; 16 g ai/ha", "value": 100}, {"measurement": "Waterhemp plant response rating", "setting": "[10]; 31 g ai/ha", "value": 100}, {"measurement": "Waterhemp plant response rating", "setting": "[10]; 62 g ai/ha", "value": 100}, {"measurement": "Plant response rating, Waterhemp", "setting": "[10]; [13]", "value": 100}, {"measurement": "Plant response rating, Field Bindweed", "setting": "[11]; [12]", "value": 0}, {"measurement": "Field Bindweed plant response rating", "setting": "[11]; 16 g ai/ha", "value": 0}, {"measurement": "Field Bindweed plant response rating", "setting": "[11]; 31 g ai/ha", "value": 0}, {"measurement": "Field Bindweed plant response rating", "setting": "[11]; 62 g ai/ha", "value": 0}, {"measurement": "Plant response rating, Field Bindweed", "setting": "[11]; [13]", "value": 0}]}
{"smiles": "FC(F)c1cccc(Oc2ncc(Cl)cn2)c1-n1cc(Br)cn1", "note": "[Compound 194, 2-[2-(4-bromo-1H-pyrazol-1-yl)-3-(difluoromethyl)phenoxy]-5-chloropyrimidine]", "values": [{"measurement": "Morningglory plant response rating", "setting": "[1]; 31 g ai/ha", "value": 0}, {"measurement": "Morningglory plant response rating", "setting": "[1]; 62 g ai/ha", "value": 0}, {"measurement": "Goosegrass plant response rating", "setting": "[2]; 31 g ai/ha", "value": 40}, {"measurement": "Goosegrass plant response rating", "setting": "[2]; 62 g ai/ha", "value": 75}, {"measurement": "Ryegrass, Italian plant response rating", "setting": "[3]; 31 g ai/ha", "value": 0}, {"measurement": "Ryegrass, Italian plant response rating", "setting": "[3]; 62 g ai/ha", "value": 0}, {"measurement": "Corn plant response rating", "setting": "[4]; 31 g ai/ha", "value": 0}, {"measurement": "Corn plant response rating", "setting": "[4]; 62 g ai/ha", "value": 0}, {"measurement": "Johnsongrass plant response rating", "setting": "[5]; 31 g ai/ha", "value": 0}, {"measurement": "Johnsongrass plant response rating", "setting": "[5]; 62 g ai/ha", "value": 50}, {"measurement": "Kochia plant response rating", "setting": "[6]; 31 g ai/ha", "value": 5}, {"measurement": "Kochia plant response rating", "setting": "[6]; 62 g ai/ha", "value": 35}, {"measurement": "Beggarticks plant response rating", "setting": "[7]; 31 g ai/ha, preemergence", "value": 0}, {"measurement": "Beggarticks plant response rating", "setting": "[7]; 62 g ai/ha, preemergence", "value": 0}, {"measurement": "Nightshade plant response rating", "setting": "[8]; 31 g ai/ha", "value": 95}, {"measurement": "Nightshade plant response rating", "setting": "[8]; 62 g ai/ha", "value": 95}, {"measurement": "Foxtail, Giant plant response rating", "setting": "[9]; 31 g ai/ha", "value": 25}, {"measurement": "Foxtail, Giant plant response rating", "setting": "[9]; 62 g ai/ha", "value": 75}, {"measurement": "Waterhemp plant response rating", "setting": "[10]; 31 g ai/ha", "value": 98}, {"measurement": "Waterhemp plant response rating", "setting": "[10]; 62 g ai/ha", "value": 100}, {"measurement": "Field Bindweed plant response rating", "setting": "[11]; 31 g ai/ha", "value": 0}, {"measurement": "Field Bindweed plant response rating", "setting": "[11]; 62 g ai/ha", "value": 40}]}
